Measurements: PubChem BioAssay (NCI)
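These data come from cells grown in 96-well plates and exposed to compound for 48 hours at five concentrations. Abbreviation: GI50, concentration required for 50% inhibition of growth. TGI: total growth inhibition.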

How the values were obtained:
Test in all cases: NCI-60 cell line screen, 48 h
HOP-92 NSCLC = system: HOP-92 NSCLC
LOX IMVI melanoma = system: LOX IMVI melanoma
CAKI-1 renal = system: CAKI-1 renal
NCI-H226 lung = system: NCI-H226 lung
SNB-19 CNS = system: SNB-19 CNS
MCF7 breast = system: MCF7 breast
COLO 205 colon = system: COLO 205 colon
SK-MEL-2 melanoma = system: SK-MEL-2 melanoma
NCI/ADR-RES ovarian = system: NCI/ADR-RES ovarian
EKVX NSCLC = system: EKVX NSCLC
ACHN renal = system: ACHN renal
SF-539 CNS = system: SF-539 CNS
MALME-3M melanoma = system: MALME-3M melanoma
A498 renal = system: A498 renal
SR leukemia = system: SR leukemia
MDA-MB-435 = system: MDA-MB-435
SK-MEL-28 melanoma = system: SK-MEL-28 melanoma
K-562 leukemia = system: K-562 leukemia
BT-549 breast = system: BT-549 breast
CCRF-CEM leukemia = system: CCRF-CEM leukemia
OVCAR-4 ovarian = system: OVCAR-4 ovarian
DU-145 prostate = system: DU-145 prostate
M14 melanoma = system: M14 melanoma
OVCAR-3 ovarian = system: OVCAR-3 ovarian
SK-MEL-5 melanoma = system: SK-MEL-5 melanoma
UACC-62 melanoma = system: UACC-62 melanoma
PC-3 prostate = system: PC-3 prostate
HOP-62 NSCLC = system: HOP-62 NSCLC
RXF 393 renal = system: RXF 393 renal
T-47D breast = system: T-47D breast
SF-268 CNS = system: SF-268 CNS
SF-295 CNS = system: SF-295 CNS
UO-31 renal = system: UO-31 renal
U251 CNS = system: U251 CNS
A549 NSCLC = system: A549 NSCLC
NCI-H23 lung = system: NCI-H23 lung
OVCAR-8 ovarian = system: OVCAR-8 ovarian
RPMI-8226 leukemia = system: RPMI-8226 leukemia
IGROV1 ovarian = system: IGROV1 ovarian
HCC-2998 colon = system: HCC-2998 colon
HCT-15 colon = system: HCT-15 colon
HS 578T breast = system: HS 578T breast
HT29 colon = system: HT29 colon
HL-60(TB) leukemia = system: HL-60(TB) leukemia
OVCAR-5 ovarian = system: OVCAR-5 ovarian
UACC-257 melanoma = system: UACC-257 melanoma
SW-620 colon = system: SW-620 colon
NCI-H522 lung = system: NCI-H522 lung
HCT-116 colon = system: HCT-116 colon
SN12C renal = system: SN12C renal
MOLT-4 leukemia = system: MOLT-4 leukemia
MDA-MB-231 breast = system: MDA-MB-231 breast
KM12 colon = system: KM12 colon
SK-OV-3 ovarian = system: SK-OV-3 ovarian
TK-10 renal = system: TK-10 renal
786-0 renal = system: 786-0 renal
NCI-H460 lung = system: NCI-H460 lung
MDA-MB-468 breast = system: MDA-MB-468 breast
SNB-75 CNS = system: SNB-75 CNS

CC1(c2ccccc2)NC(=O)N(CC(=O)Nc2ccc(C(=O)/C=C/c3ccc(Cl)cc3)cc2)C1=O (stereo not drawn)
GI50 (HOP-92 NSCLC): 6.25 µM
TGI (HOP-92 NSCLC): 53.7 µM
GI50 (LOX IMVI melanoma): 2950 nM
TGI (LOX IMVI melanoma): 11.1 µM
GI50 (CAKI-1 renal): 5.51 µM
TGI (CAKI-1 renal): 20.7 µM
GI50 (NCI-H226 lung): 9.09 µM
TGI (NCI-H226 lung): 52.3 µM
GI50 (SNB-19 CNS): 11.2 µM
TGI (SNB-19 CNS): 24.4 µM
GI50 (MCF7 breast): 1960 nM
TGI (MCF7 breast): 5.28 µM
GI50 (COLO 205 colon): 13.2 µM
TGI (COLO 205 colon): 29.7 µM
GI50 (SK-MEL-2 melanoma): 11.5 µM
TGI (SK-MEL-2 melanoma): 28 µM
GI50 (NCI/ADR-RES ovarian): 13.5 µM
TGI (NCI/ADR-RES ovarian): 46.4 µM
GI50 (EKVX NSCLC): 4.64 µM
TGI (EKVX NSCLC): 23.5 µM
GI50 (ACHN renal): 4.92 µM
TGI (ACHN renal): 17.7 µM
GI50 (SF-539 CNS): 6.15 µM
TGI (SF-539 CNS): 19.1 µM
GI50 (MALME-3M melanoma): 13.1 µM
TGI (MALME-3M melanoma): 30.8 µM
GI50 (A498 renal): 14.4 µM
TGI (A498 renal): 38.2 µM
GI50 (SR leukemia): 2990 nM
TGI (SR leukemia): > 100 µM
GI50 (MDA-MB-435): 2150 nM
TGI (MDA-MB-435): 4.83 µM
GI50 (SK-MEL-28 melanoma): 10.8 µM
TGI (SK-MEL-28 melanoma): 23.2 µM
GI50 (K-562 leukemia): 3.09 µM
TGI (K-562 leukemia): 13.1 µM
GI50 (BT-549 breast): 4.78 µM
TGI (BT-549 breast): 19 µM
GI50 (CCRF-CEM leukemia): 4 µM
TGI (CCRF-CEM leukemia): 30.8 µM
GI50 (OVCAR-4 ovarian): 7.35 µM
TGI (OVCAR-4 ovarian): 36.1 µM
GI50 (DU-145 prostate): 12.3 µM
TGI (DU-145 prostate): 26.2 µM
GI50 (M14 melanoma): 3.22 µM
TGI (M14 melanoma): 12 µM
GI50 (OVCAR-3 ovarian): 7.1 µM
TGI (OVCAR-3 ovarian): 21.9 µM
GI50 (SK-MEL-5 melanoma): 4.72 µM
TGI (SK-MEL-5 melanoma): 16.6 µM
GI50 (UACC-62 melanoma): 4.07 µM
TGI (UACC-62 melanoma): 17.8 µM
GI50 (PC-3 prostate): 3.61 µM
TGI (PC-3 prostate): 27.6 µM
GI50 (HOP-62 NSCLC): 12.5 µM
TGI (HOP-62 NSCLC): 29.8 µM
GI50 (RXF 393 renal): 2970 nM
TGI (RXF 393 renal): 13.6 µM
GI50 (T-47D breast): 2590 nM
TGI (T-47D breast): 14.6 µM
GI50 (SF-268 CNS): 6.51 µM
TGI (SF-268 CNS): 31.5 µM
GI50 (SF-295 CNS): 4.34 µM
TGI (SF-295 CNS): 16.6 µM
GI50 (UO-31 renal): 4.06 µM
TGI (UO-31 renal): 18 µM
GI50 (U251 CNS): 3.16 µM
TGI (U251 CNS): 14.3 µM
GI50 (A549 NSCLC): 4.25 µM
TGI (A549 NSCLC): 20 µM
GI50 (NCI-H23 lung): 11.7 µM
TGI (NCI-H23 lung): 24.8 µM
GI50 (OVCAR-8 ovarian): 10.7 µM
TGI (OVCAR-8 ovarian): 52.5 µM
GI50 (RPMI-8226 leukemia): 1930 nM
TGI (RPMI-8226 leukemia): 5.07 µM
GI50 (IGROV1 ovarian): 9.27 µM
TGI (IGROV1 ovarian): 22.3 µM
GI50 (HCC-2998 colon): 1790 nM
TGI (HCC-2998 colon): 3.63 µM
GI50 (HCT-15 colon): 4.55 µM
TGI (HCT-15 colon): 18.4 µM
GI50 (HS 578T breast): 12.7 µM
TGI (HS 578T breast): > 100 µM
GI50 (HT29 colon): 3.7 µM
TGI (HT29 colon): 15.7 µM
GI50 (HL-60(TB) leukemia): 4.06 µM
TGI (HL-60(TB) leukemia): 30.9 µM
GI50 (OVCAR-5 ovarian): 13.3 µM
TGI (OVCAR-5 ovarian): 29 µM
GI50 (UACC-257 melanoma): 11.3 µM
TGI (UACC-257 melanoma): 25.7 µM
GI50 (SW-620 colon): 5.93 µM
TGI (SW-620 colon): 20.7 µM
GI50 (NCI-H522 lung): 6.69 µM
TGI (NCI-H522 lung): 30 µM
GI50 (HCT-116 colon): 1370 nM
TGI (HCT-116 colon): 2800 nM
GI50 (SN12C renal): 7.96 µM
TGI (SN12C renal): 25.4 µM
GI50 (MOLT-4 leukemia): 3.02 µM
TGI (MOLT-4 leukemia): 23.1 µM
GI50 (MDA-MB-231 breast): 5.97 µM
TGI (MDA-MB-231 breast): 21.6 µM
GI50 (KM12 colon): 2540 nM
TGI (KM12 colon): 6.87 µM
GI50 (SK-OV-3 ovarian): 16 µM
TGI (SK-OV-3 ovarian): 44.6 µM
GI50 (TK-10 renal): 10.8 µM
TGI (TK-10 renal): 35.4 µM
GI50 (786-0 renal): 7.48 µM
TGI (786-0 renal): 21 µM
GI50 (NCI-H460 lung): 12 µM
TGI (NCI-H460 lung): 27.8 µM
GI50 (MDA-MB-468 breast): 2850 nM
TGI (MDA-MB-468 breast): 12.3 µM
GI50 (SNB-75 CNS): 1480 nM
TGI (SNB-75 CNS): 21.8 µM
